Assay [1] concerns the target T1, PSMA-expressing LNCaP cells (Homo sapiens, UniProt Q04609).
T1 construct: PSMA-expressing LNCaP cells; endogenous in cells; host or cells: LNCaP
The experiment in a line: Binding competition assay against 3H-PSMA-617 on LNCaP cells. Particulars: for % remaining 3H-PSMA-617 @ 10 nM (mean) / % remaining 3H-PSMA-617 @ 100 nM (mean) / remaining activity at 0.01 µM / remaining activity at 0.1 µM: LNCaP cells, 10 nM 3H-PSMA-617, 2 h at 37° C., triplicates; for % remaining 3H-PSMA-617 @ 10 nM (mean) / remaining activity at 0.01 µM: competing non-radiolabeled compound 10 nM; for % remaining 3H-PSMA-617 @ 100 nM (mean) / remaining activity at 0.1 µM: competing non-radiolabeled compound 100 nM; for competition against 3H-PSMA-617 on PSMA-expressing LNCaP cells (in words): comparison between examples. In a few lines: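 Compounds added to LNCaP cells in growth medium, 2 h at 37 °C, 5% CO2. After two ice-cold PBS washes, cells lysed in 0.3 M NaOH and bound radioactivity measured by liquid scintillation counting.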

For assay [2], the system named is VCap, C4-2, 22Rv1 and LnCap cells. The experiment in a line: Cell proliferation assay, summary statements over several cell lines. It counts as cell-based. Particulars: for antiproliferative activity on VCap, C4-2, 22Rv1 and LnCap cells (in words): 227Th-labelled compounds bearing the HOPO chelator Example A. As for the experimental part: Inhibition of cell proliferation of Thorium-227 labeled PMSA SMOL ligands was tested different prostate cancer cell lines, namely 22Rv1, VCaP, C4-2 (all from ATCC, Manassas, Va., USA) and LNCaP (DMSZ, Braunschweig). Cells were seeded using the following conditions in 384 well plates (Corning) in 30 μl of growth media at 4000 cells/well for VCaP cells and 1000 cells/well for 22Rv1, C4-2 and LNCaP cells.
Cells were cultivated an incubator at 37° C. and 5% C02 over night. […] In sister plates cell viability at treatment start (d=0) was determined using CellTiter-Glo® assay (CTG, Promega, Madison, Wis., USA), by adding 30 μl per well CTG solution, incubation for 10 min and reading of Luminescence in a PheraStarFSX instrument (BMG Labtech). After a 5-day exposure in the presenced of test compounds, cell viability of treated or untreated control cells was determined again using CellTiter-Glo® assay (Promega, Madison, Wis., USA). […] The DRC software is a Biobook Spreadsheet that was developed by Bayer AG and Bayer Business Services on the IDBS E-Workbook Suite platform (IDBS: ID Business Solutions Ltd., Guildford, UK).

Assay [3] deals with LNCaP human prostate cancer cells. The experiment in a line: LNCaP xenograft efficacy study (T/C tumor area). It counts as in vivo, SCID mice. As to conditions: Example III; day 64 after start of therapy; single treatment 1.5 MBq/kg. In a few lines: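 SCID mice with testosterone pellet bearing s.c. flank LNCaP xenografts (5×10^6 cells in Matrigel) were treated i.v. with a defined radioactive dose once tumors reached 35-50 mm^2 (n=10/group). Tumor area (caliper, longest diameter × perpendicular) measured 2-3× weekly; T/C ratio calculated from tumor areas when vehicle group closed.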

T1 sequence (Q04609 whole entry): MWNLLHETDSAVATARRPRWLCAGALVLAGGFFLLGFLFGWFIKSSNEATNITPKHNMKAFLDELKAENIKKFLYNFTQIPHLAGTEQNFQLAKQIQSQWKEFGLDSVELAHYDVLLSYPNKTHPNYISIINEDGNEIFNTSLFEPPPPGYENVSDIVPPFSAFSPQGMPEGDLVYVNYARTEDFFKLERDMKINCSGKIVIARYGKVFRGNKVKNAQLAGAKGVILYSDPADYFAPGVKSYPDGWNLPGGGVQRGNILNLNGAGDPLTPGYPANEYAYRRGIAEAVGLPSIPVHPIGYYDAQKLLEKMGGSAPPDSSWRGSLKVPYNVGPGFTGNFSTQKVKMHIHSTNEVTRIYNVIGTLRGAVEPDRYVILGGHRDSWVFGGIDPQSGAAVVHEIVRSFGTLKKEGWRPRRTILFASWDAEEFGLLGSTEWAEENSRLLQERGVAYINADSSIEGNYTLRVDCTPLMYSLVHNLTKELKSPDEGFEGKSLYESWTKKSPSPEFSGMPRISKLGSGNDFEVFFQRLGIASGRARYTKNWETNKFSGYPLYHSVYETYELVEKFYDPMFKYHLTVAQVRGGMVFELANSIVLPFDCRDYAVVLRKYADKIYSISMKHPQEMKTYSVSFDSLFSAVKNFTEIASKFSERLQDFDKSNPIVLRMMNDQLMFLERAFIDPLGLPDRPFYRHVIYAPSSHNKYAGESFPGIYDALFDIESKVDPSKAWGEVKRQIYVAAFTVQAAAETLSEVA

As to `Cc1cc(C(=O)NCCN(CCCN(CCNC(=O)c2cc(C)n(CC(=O)NC[C@H]3CC[C@H](C(=O)N[C@@H](Cc4cnc5ccccc5c4)C(=O)NCCCC[C@H](NC(=O)N[C@@H](CCC(=O)O)C(=O)O)C(=O)O)CC3)c(=O)c2O)CCNC(=O)c2cc(C)n(CC(=O)NC[C@H]3CC[C@H](C(=O)N[C@@H](Cc4cnc5ccccc5c4)C(=O)NCCCC[C@H](NC(=O)N[C@@H](CCC(=O)O)C(=O)O)C(=O)O)CC3)c(=O)c2O)CCNC(=O)c2cc(C)n(CC(=O)NC[C@H]3CC[C@H](C(=O)N[C@@H](Cc4cnc5ccccc5c4)C(=O)NCCCC[C@H](NC(=O)N[C@@H](CCC(=O)O)C(=O)O)C(=O)O)CC3)c(=O)c2O)c(O)c(=O)n1CC(=O)O` [Example 22-C trimer], in assay [1], the “% remaining 3H-PSMA-617 @ 10 nM (mean)” value is listed as 33% and the “% remaining 3H-PSMA-617 @ 100 nM (mean)” value came to 5%. In assay [2], the “antiproliferative activity on VCap, C4-2, 22Rv1 and LnCap cells (in words)” value is “high antiproliferative activity”.

In the case of `Cc1cc(C(=O)NCCN(CCCN(CCNC(=O)c2cc(C)n(CC(=O)O)c(=O)c2O)CCNC(=O)c2cc(C)n(CC(=O)NC[C@H]3CC[C@H](C(=O)N[C@@H](Cc4ccc5ccccc5c4)C(=O)NCCCC[C@H](NC(=O)N[C@@H](CCC(=O)O)C(=O)O)C(=O)O)CC3)c(=O)c2O)CCNC(=O)c2cc(C)n(CC(=O)NC[C@H]3CC[C@H](C(=O)N[C@@H](Cc4ccc5ccccc5c4)C(=O)NCCCC[C@H](NC(=O)N[C@@H](CCC(=O)O)C(=O)O)C(=O)O)CC3)c(=O)c2O)c(O)c(=O)n1CC(=O)O` [1-C dimer, (3S,10S,14S,3'S,10'S,14'S)-1,1′-(propane-1,3-diylbis{[(2-{[1-(carboxymethyl)-3-hydroxy-6-methyl-2-oxo-1,2-dihydropyridine-4-carbonyl]amino}ethyl)azanediyl]ethane-2,1-diylcarbamoyl(3-hydroxy-6-methyl-2-oxopyridine-4,1(2H)-diyl)(1-oxoethane-2,1-diyl)azanediylmethylene(1r,4S)cyclohexane-4,1-diyl})bis{3-[(naphthalen-2-yl)methyl]-1,4,12-trioxo-2,5,11,13-tetraazahexadecane-10,14,16-tricarboxylic acid}], in assay [1], the “% remaining 3H-PSMA-617 @ 10 nM (mean)” value is 39%, the “% remaining 3H-PSMA-617 @ 100 nM (mean)” value amounted to 5% and the “competition against 3H-PSMA-617 on PSMA-expressing LNCaP cells (in words)” value (“competition” below) is given as “improved competition”. Also, in assay [2], the “antiproliferative activity on VCap, C4-2, 22Rv1 and LnCap cells (in words)” value is reported as “high antiproliferative activity”.

What is called remaining activity is the signal under treatment as a percentage of the control signal. Low readings indicate a large loss of activity, high ones a small loss of activity. In assay [1], `Cc1cc(C(=O)NCCN(CCCN(CCNC(=O)c2cc(C)n(CC(=O)NCc3ccc(C(=O)N[C@@H](Cc4ccc5ccccc5n4)C(=O)NCCCC[C@H](NC(=O)N[C@@H](CCC(=O)O)C(=O)O)C(=O)O)nc3)c(=O)c2O)CCNC(=O)c2cc(C)n(CC(=O)NCc3ccc(C(=O)N[C@@H](Cc4ccc5ccccc5n4)C(=O)NCCCC[C@H](NC(=O)N[C@@H](CCC(=O)O)C(=O)O)C(=O)O)nc3)c(=O)c2O)CCNC(=O)c2cc(C)n(CC(=O)NCc3ccc(C(=O)N[C@@H](Cc4ccc5ccccc5n4)C(=O)NCCCC[C@H](NC(=O)N[C@@H](CCC(=O)O)C(=O)O)C(=O)O)nc3)c(=O)c2O)c(O)c(=O)n1CC(=O)NCc1ccc(C(=O)N[C@@H](Cc2ccc3ccccc3n2)C(=O)NCCCC[C@H](NC(=O)N[C@@H](CCC(=O)O)C(=O)O)C(=O)O)nc1` [34-C tetramer] gave a remaining activity at 0.01 µM of 73% and a remaining activity at 0.1 µM of 14%. Further, the “antiproliferative activity on VCap, C4-2, 22Rv1 and LnCap cells (in words)” value in assay [2] is on record as “high antiproliferative activity”. Also, the “antiproliferative activity on VCap and C4-2 cells (in words)” value in assay [2] (227Th-labelled compounds, in comparison to 227Th-labelled examples 1-C monomer, dimer, trimer and tetramer) is “improved antiproliferative activity”.

On to `Cc1cc(C(=O)NCCN(CCCN(CCNC(=O)c2cc(C)n(CC(=O)O)c(=O)c2O)CCNC(=O)c2cc(C)n(CC(=O)NC[C@H]3CC[C@H](C(=O)N[C@@H](Cc4ccc5ccccc5n4)C(=O)NCCCC[C@H](NC(=O)N[C@@H](CCC(=O)O)C(=O)O)C(=O)O)CC3)c(=O)c2O)CCNC(=O)c2cc(C)n(CC(=O)O)c(=O)c2O)c(O)c(=O)n1CC(=O)O` [Example 17-C monomer], for which, in assay [1], the remaining activity at 0.01 µM worked out at 42% and the remaining activity at 0.1 µM is 8%. The “antiproliferative activity on VCap, C4-2, 22Rv1 and LnCap cells (in words)” value in assay [2] was “high antiproliferative activity”.

In the case of `Cc1cc(C(=O)NCCN(CCCN(CCNC(=O)c2cc(C)n(CC(=O)O)c(=O)c2O)CCNC(=O)c2cc(C)n(CC(=O)NC[C@H]3CC[C@H](C(=O)N[C@@H](Cc4ccc5ccccc5c4)C(=O)NCCCC[C@H](NC(=O)N[C@@H](CCC(=O)O)C(=O)O)C(=O)O)CC3)c(=O)c2O)CCNC(=O)c2cc(C)n(CC(=O)O)c(=O)c2O)c(O)c(=O)n1CC(=O)O` [Example 1-C Monomer], in assay [1], the remaining activity at 0.01 µM amounted to 32%, the remaining activity at 0.1 µM amounted to 5% and the “competition” value is reported as “improved competition”. In addition, in assay [2], the “antiproliferative activity on VCap, C4-2, 22Rv1 and LnCap cells (in words)” value is listed as “high antiproliferative activity”.

Consider `Cc1cc(C(=O)NCCN(CCCN(CCNC(=O)c2cc(C)n(CC(=O)NC[C@H]3CC[C@H](C(=O)N[C@@H](Cc4ccc5ccccc5c4)C(=O)NCCCC[C@H](NC(=O)N[C@@H](CCC(=O)O)C(=O)O)C(=O)O)CC3)c(=O)c2O)CCNC(=O)c2cc(C)n(CC(=O)NC[C@H]3CC[C@H](C(=O)N[C@@H](Cc4ccc5ccccc5c4)C(=O)NCCCC[C@H](NC(=O)N[C@@H](CCC(=O)O)C(=O)O)C(=O)O)CC3)c(=O)c2O)CCNC(=O)c2cc(C)n(CC(=O)NC[C@H]3CC[C@H](C(=O)N[C@@H](Cc4ccc5ccccc5c4)C(=O)NCCCC[C@H](NC(=O)N[C@@H](CCC(=O)O)C(=O)O)C(=O)O)CC3)c(=O)c2O)c(O)c(=O)n1CC(=O)O` [1-C trimer], for which, in assay [1], the remaining activity at 0.01 µM came out at 45%, the remaining activity at 0.1 µM turned out to be 9% and the “competition” value is on record as “improved competition”. Also, the “antiproliferative activity on VCap, C4-2, 22Rv1 and LnCap cells (in words)” value in assay [2] is recorded as “high antiproliferative activity”.

As for `Cc1cc(C(=O)NCCN(CCCN(CCNC(=O)c2cc(C)n(CC(=O)NC[C@H]3CC[C@H](C(=O)N[C@@H](Cc4ccc5ccccc5c4)C(=O)NCCCC[C@H](NC(=O)N[C@@H](CCC(=O)O)C(=O)O)C(=O)O)CC3)c(=O)c2O)CCNC(=O)c2cc(C)n(CC(=O)NC[C@H]3CC[C@H](C(=O)N[C@@H](Cc4ccc5ccccc5c4)C(=O)NCCCC[C@H](NC(=O)N[C@@H](CCC(=O)O)C(=O)O)C(=O)O)CC3)c(=O)c2O)CCNC(=O)c2cc(C)n(CC(=O)NC[C@H]3CC[C@H](C(=O)N[C@@H](Cc4ccc5ccccc5c4)C(=O)NCCCC[C@H](NC(=O)N[C@@H](CCC(=O)O)C(=O)O)C(=O)O)CC3)c(=O)c2O)c(O)c(=O)n1CC(=O)NC[C@H]1CC[C@H](C(=O)N[C@@H](Cc2ccc3ccccc3c2)C(=O)NCCCC[C@H](NC(=O)N[C@@H](CCC(=O)O)C(=O)O)C(=O)O)CC1` [1-C tetramer], in assay [1], the remaining activity at 0.01 µM came to 59%, the remaining activity at 0.1 µM came to 7% and the “competition” value is on record as “improved competition”. Further, the “antiproliferative activity on VCap, C4-2, 22Rv1 and LnCap cells (in words)” value in assay [2] was “high antiproliferative activity”. Also, the T/Carea in assay [3] amounted to 0.36.

Take `CNc1cc(CC(NC(=O)C2CCC(CNC(=O)Cn3c(C)cc(C(=O)NCCN(CCCN(CCNC(=O)c4cc(C)n(CC(=O)O)c(=O)c4O)CCNC(=O)c4cc(C)n(CC(=O)NCC5CCC(C(=O)NC(Cc6cc(NC)c7ccccc7c6)C(=O)NCCCCC(NC(=O)NC(CCC(=O)O)C(=O)O)C(=O)O)CC5)c(=O)c4O)CCNC(=O)c4cc(C)n(CC(=O)O)c(=O)c4O)c(O)c3=O)CC2)C(=O)NCCCCC(NC(=O)NC(CCC(=O)O)C(=O)O)C(=O)O)cc2ccccc12` (stereo not drawn) [37-C dimer]: in assay [1], the “% remaining 3H-PSMA-617 @ 10 nM (mean)” value is recorded as 64% and the “% remaining 3H-PSMA-617 @ 100 nM (mean)” value stood at 13%. In assay [2], the “antiproliferative activity on VCap, C4-2, 22Rv1 and LnCap cells (in words)” value was “high antiproliferative activity”.
